Experimental findings from patent US12594296B2, “Methods for treatment or prevention of damage resulting from radiation, trauma or shock” (priority 2012, dated 2026) are described below.

The subject of series [1] is bacteria in the mesenteric lymph nodes. The series is described as follows: Intestinal bacterial translocation: bacterial count in mesenteric lymph nodes (Example 9). The following applies: irradiated animals, 13 Gy; FIG. 16.
For series [2], the system named is Acinetobacter baumaunii. The series is described as follows: Caco2 attachment of Acinetobacter baumannii. Conditions: pretreatment 200 μg/mL 1 h; relative to untreated cells. The series is classed as cell-based. The procedure: Caco2 Attachment. The gut epithelium cell line (Caco2) were grown in Eagle's Minimal Essential Media (EMEM) supplemented with 10% (v/v) fetal bovine serum and 2 mm L-glutamine. Caco2 cells were seeded at 2.5×10^5 per well in 24 well plates and incubated at 37° C. and in atmosphere of 5% CO2 for 24 hours to confluency. The cells were then rinsed twice with D-PBS and replaced with (EMEM) without fetal bovine serum for another 24 hours. Cells were rinsed with D-PBS twice and replaced with media containing no fetal bovine serum. Pretreatment of the cells with PAAG 200 ug/ml (86 kDa, 30% functionalization; 37 kDa, 22% functionalization; and 27 kDa, 21% functionalization) dissolved in media without serum for one hour was performed and the cells were then rinsed twice with D-PBS to remove any non-adherent PAAG. After rinsing, the cells were inoculated with Acinetobacter baumaunii in growth phase at a multiplicity of infection (MOI) of 1:100 for one hour. Cells were then rinsed twice with D-PBS before being lysed using 0.5% Triton X-100 in D-PBS. Supernatants were extracted and serially diluted, plated and counted for bacterial attachment.
Pretreatment and binding studies were performed as described above for Caco2 cells with Acinetobacter attachment and Burkholderia cepacia macrophage uptake studies, with the PAAG (86 kDa and 30% functionalization) added to the indicated final concentrations.

Series [3] relates to small intestine of irradiated C57BL/6 mice.
[4] abbreviates: 13 Gy, day 4, quantitative histology, FIG. 19.

Where two headings read alike, the source gives them in different places.

In the case of “poly (acetyl, arginyl) glucosamine [PAAG]”, the “bacteria in the MLN (CFU/g) versus vehicle control group” value in series [1] is recorded as “dramatically less”. Moreover, the “percentage of bacteria bound to Caco2 cells” value in series [2] was “decreases”. Moreover, in series [3] (13 Gy, day 2, 50 mg/kg PO), the crypt degeneration result is given as “mild to moderate”; the “villi height, structure and epithelium” value is “retained their normal height and structure”. Besides, in series [3] (13 Gy, day 3, 50 mg/kg PO), the crypt regeneration result is “mild to moderate” and the villi blunting result was “minimally blunted”. For the same substance, in series [3] (13 Gy, day 4, 50 mg/kg PO), the crypt loss entry is “moderate to marked” and the crypt regeneration entry is “moderate to marked”. The “loss of villous epithelium” value in series [3] (13 Gy, day 4, compared with vehicle group 3) was “not as severe as in group 3 animals”. Further, in series [3] (setting [4]), the “GI inflammation relative to control” value was “reduced”, the “crypt loss relative to control” value is on record as “reduced” and the “epithelial loss relative to control” value was “reduced”. Besides, in series [3] (13 Gy, days 2-4), the “crypt degeneration versus vehicle-treated mice” value is given as “less severe”, the “inflammation versus vehicle-treated mice” value is given as “reduced” and the “protection from the gastrointestinal effects of total body irradiation” value is given as “partially protected”. In series [3] (mouse, in vivo, po, 50 mg/kg), the small intestine histology result is listed as “essentially normal”.
